Molecular target: T1, Glutaredoxin-1 (GRX-1) (Homo sapiens, UniProt P35754)
T1 sequence (P35754 2-106): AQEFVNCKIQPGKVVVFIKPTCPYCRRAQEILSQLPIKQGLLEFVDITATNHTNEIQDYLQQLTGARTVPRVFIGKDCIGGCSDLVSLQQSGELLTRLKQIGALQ
Assay: time-dependent inactivation kinetics
Type: biochemical
Settings: read-out: Ki

KI (inactivation): 91.3 µM
SMILES: CC(=O)N[C@@H](CSC(=S)Nc1ccc(NC(=S)SC[C@H](NC(C)=O)C(=O)O)cc1)C(=O)O [2-AAPA, 2-acetylamino-3-[4-(2-acetylamino-2-carboxyethyl-sulfanylthiocarbonylamino)phenylthiocarbamoylsulfanyl]propionic acid]

Reference: publication PMC4310727 (Journal of enzyme inhibition and medicinal chemistry, 2012)
